Laboratory results published in patent US6878253B2, “Chiral separation of benzoporphyrin derivative mono-and di-acids by laser-induced fluorescence capillary electrophoresis” (The University of British Columbia, priority 1998, dated 2005).

What was measured:
[1] = Extinction coefficient determination in borate/cholate buffer; format: physicochemical; conditions: 430 nm; 300 mM borate, 10% acetonitrile, 25 mM sodium cholate, pH 9.2
Source text: The compounds have the same chromophore and identical absorption spectra (FIG. 3a) with a characteristic major broad peak in the Soret region (420 nm) and several other peaks at longer wavelengths. The most interesting long wavelength peak, in terms of applications in PDT, is the peak at 688 nm (in organic solvents). […] An emission spectrum is also shown in FIG. 3b with a characteristic emission at about 692 nm, near red (Q-band), with a Stokes shift of ˜4 nm for fluorescence. […] As such, there is no gain in photo absorption by use of any particular BPD enantiomer.

[2] = Decomposition (hydrolysis) in electrophoresis buffers; format: physicochemical; conditions: in one hour at pH 9.2
Method: Separation by CE is also affected by the buffering system used. Buffer type, concentration, ionic strength, and pH are all parameters to consider, and a variety of buffers may be used. Buffer solutions of pH 11.04, 100 mM 3-(cyclohexylamino)-1-propanesulfonic acid (CAPS); pH 6.76, 30 mM ammonium acetate; pH 2.76, 50 mM citric acid; and pH 9.2, 100 mM borate were tested as electrolytes. […] This was followed by either separation shut down or excess spiking and signal noise. In citric acid buffer the BPD enantiomers were protonated at the propionic side chain, defeating separation based on the deprotonated state. Since the effective charge(s) are the same for BPD-DA and BPD-MA, the electrophoretic mobility difference is normally very small. Also, at […], the EOF was very small and this caused the migration time to become overly long. The result was very poor signal separation due to extensive diffusion.
With borate buffer at about pH 9.2, however, the BPD-DA and BPD-MA enantiomers were completely separated. This, in combination with the ability of borate to form a very stable buffer solution with high buffering capacity and its ability to be used in very high concentrations, made it a preferred choice for use in the instant separation methods. Borate has also been used in other separation systems (Consden et al. (1952); Boeseken (1949); and Landers et al. (1992)). […]

skin = conditions: versus Photofrin (Richter et al. (1987)); cited from earlier work

Extinction coefficient [1]	decomposition [2]	Compound	skin phototoxicity (skin)
75,200 M^−1 cm^−1		C=Cc1c(C)c2cc3nc(cc4[nH]c(cc5nc(cc1[nH]2)C(C)=C5CCC(=O)O)c(CCC(=O)O)c4C)[C@@]1(C)C3=CC=C(C(=O)OC)[C@H]1C(=O)OC [BPD-DA, benzoporphyrin derivative diacid]	
61,000 M^−1 cm^−1	less than 1%	benzoporphyrin derivative monoacid ring A [BPD-MA]	lower skin phototoxicity than Photofrin
